# Reference: patent US10723741B1, “DNA polymerase IIIC inhibitors and use thereof” (Acurx Pharmaceuticals, LLC, priority 2018, dated 2020)
# Like-named read-outs stand apart in the source and are kept apart here.
# Key:
# Format in all cases: cell-based
# [1] = system: Enterococcus faecium ATCC 700221 (VRE); assay: Broth microdilution MIC, E. faecium ATCC 700221 (VRE); parameters: MIC E. faecium ATCC 700221 (VRE): unit: ug/mL; conditions: for MIC: Enterococcus faecium, read-out: MIC E. faecium ATCC 700221 (VRE)
# Summary of the method: (§1)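 Two-fold dilutions from 64 to 0.0625 μg/ml final, 1% DMSO, were inoculated at ~5.0×10^5 cfu/ml in the strain's test medium and kept 20 h at 37 °C in ambient atmosphere. Colonies were grown on MHA, with S. pneumoniae on blood agar under 5% CO2.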
# [2] = system: Enterococcus faecalis ATCC 29212; assay: Broth microdilution MIC, E. faecalis ATCC 29212; conditions: read-out: MIC E. faecalis ATCC 29212
# Summary of the method: as §1
# [3] = system: Bacillus subtilis ATCC 6633; assay: Broth microdilution MIC, B. subtilis ATCC 6633; conditions: read-out: MIC B. subtilis ATCC 6633
# Summary of the method: as §1
# [4] = system: Escherichia coli ATCC 25922; assay: Broth microdilution MIC, E. coli ATCC 25922 (MHIIB w & w/o 4 mM EDTA); conditions: for MIC: Escherichia coli, read-out: MIC E. coli ATCC 25922; for MIC E. coli ATCC 25922 + 4 mM EDTA: with 4 mM EDTA
# Summary of the method: as §1
# [5] = system: Streptococcus pneumoniae ATCC 49619; assay: Broth microdilution MIC, S. pneumoniae ATCC 49619; conditions: read-out: MIC S. pneumoniae ATCC 49619
# Summary of the method: as §1
# [6] = system: Staphylococcus aureus NRS384 (MRSA); assay: Broth microdilution MIC, S. aureus NRS384 (MRSA); parameters: MIC NRS 384 (MRSA): unit not given here; conditions: for MIC: Staphylococcus aureus, read-out: MIC NRS 384 (MRSA)
# Summary of the method: as §1
# [7] = system: Staphylococcus aureus ATCC 29213 (MSSA); assay: Broth microdilution MIC, S. aureus ATCC 29213 (MSSA); conditions: read-out: MIC S. aureus ATCC 29213 (MSSA)
# Summary of the method: as §1
# [8] = broth microdilution, 37° C., 20 hours
# [9] = ATCC29212, broth microdilution, 37° C., 20 hours
# [10] = ATCC6633, broth microdilution, 37° C., 20 hours
# [11] = ATCC25922, without EDTA, broth microdilution, 37° C., 20 hours
# [12] = ATCC49619, broth microdilution, 37° C., 20 hours
structure (smiles),measurement,setting,value
"O=c1[nH]c(NCc2ccc(Cl)c(Cl)c2)nc2cnn(C[C@H]3NC[C@H](O)[C@@H](O)[C@@H]3O)c12 [Compound 96, 5-((3,4-Dichlorobenzyl)amino)-1-(((2R,3R,4R,5 S)-3,4,5-trihydroxypiperidin-2-yl)methyl)-1H-pyrazolo[4,3-d]pyrimidin-7(6H)-one]",MIC,[1]; [8],64 µg/mL
same,MIC,[2]; [9],> 64 µg/mL
same,MIC,[3]; [10],> 64 µg/mL
same,MIC,[4]; [11],> 64 µg/mL
same,MIC E. coli ATCC 25922 + 4 mM EDTA,[4]; [8],32 µg/mL
same,MIC,[5]; [12],64 µg/mL
same,MIC,[6]; [8],> 64 µg/mL
same,MIC,[7]; [8],> 64 µg/mL
"Cn1ccnc1Cn1ncc2nc(NCc3ccc(Cl)c(Cl)c3)[nH]c(=O)c21 [Compound 97, 5-((3,4-Dichlorobenzyl)amino)-1-((1-methyl-1H-imidazol-2-yl)methyl)-1H-pyrazolo[4,3-d]pyrimidin-7(6H)-one]",MIC,[1]; [8],8 µg/mL
same,MIC,[2]; [9],> 64 µg/mL
same,MIC,[3]; [10],8 µg/mL
same,MIC,[4]; [11],> 64 µg/mL
same,MIC E. coli ATCC 25922 + 4 mM EDTA,[4]; [8],>64 µg/mL
same,MIC,[5]; [12],4 µg/mL
same,MIC,[6]; [8],8 µg/mL
same,MIC,[7]; [8],8 µg/mL
"CC(C)(C)OC(=O)N1CCC(n2ncc3nc(NCc4ccc(Cl)c(Cl)c4)[nH]c(=O)c32)C1 (stereo not drawn) [Compound 98, tert-Butyl 3-(5-((3,4-dichlorobenzyl)amino)-7-oxo-6,7-dihydro-1H-pyrazolo[4,3-d]pyrimidin-1-yl)pyrrolidine-1-carboxylate]",MIC,[1]; [8],4 µg/mL
same,MIC,[2]; [9],> 64 µg/mL
same,MIC,[3]; [10],2 µg/mL
same,MIC,[4]; [11],> 64 µg/mL
same,MIC E. coli ATCC 25922 + 4 mM EDTA,[4]; [8],>64 µg/mL
same,MIC,[5]; [12],16 µg/mL
same,MIC,[6]; [8],8 µg/mL
same,MIC,[7]; [8],8 µg/mL
"Cl.NCCOCCn1ncc2nc(NCc3ccc(Cl)c(Cl)c3)[nH]c(=O)c21 [Compound 99, 1-(2-(2-aminoethoxy)ethyl)-5-((3,4-dichlorobenzyl)amino)-1H-pyrazolo[4,3-d]pyrimidin-7(6H)-one hydrochloride]",MIC,[1]; [8],32 µg/mL
same,MIC,[2]; [9],32 µg/mL
same,MIC,[3]; [10],2 µg/mL
same,MIC,[4]; [11],> 64 µg/mL
same,MIC E. coli ATCC 25922 + 4 mM EDTA,[4]; [8],64 µg/mL
same,MIC,[5]; [12],4 µg/mL
same,MIC,[6]; [8],64 µg/mL
same,MIC,[7]; [8],64 µg/mL
"CC(C)(C)OC(=O)NCCOCCn1ncc2nc(NCc3ccc(Cl)c(Cl)c3)[nH]c(=O)c21 [Compound 100, tert-Butyl (2-(2-(5-((3,4-dichlorobenzyl)amino)-7-oxo-6,7-dihydro-1H-pyrazolo[4,3-d]pyrimidin-1-yl)ethoxy)ethyl)carbamate]",MIC,[1]; 20 h,4 µg/mL
same,MIC,"[2]; ATCC29212, 20 h",> 64 µg/mL
same,MIC,"[3]; ATCC6633, 20 h",2 µg/mL
same,MIC,"[4]; ATCC25922, 20 h",> 64 µg/mL
same,MIC E. coli ATCC 25922 + 4 mM EDTA,[4]; [8],>64 µg/mL
same,MIC,"[5]; ATCC49619, 20 h",8 µg/mL
same,MIC,[6]; 20 h,> 64 µg/mL
same,MIC,[7]; 20 h,> 64 µg/mL
"Cl.O=c1[nH]c(NCc2ccc(Cl)c(Cl)c2)nc2cnn(Cn3cncn3)c12 [Compound 101, 1-((1H-1,2,4-triazol-1-yl)methyl)-5-((3,4-dichlorobenzyl)amino)-1H-pyrazolo[4,3-d]pyrimidin-7(6H)-one hydrochloride]",MIC E. faecium ATCC 700221 (VRE),[1]; [8],2/4
same,MIC,[2]; [9],4 µg/mL
same,MIC,[3]; [10],2 µg/mL
same,MIC,[4]; [11],> 64 µg/mL
same,MIC E. coli ATCC 25922 + 4 mM EDTA,[4]; [8],64 µg/mL
same,MIC,[5]; [12],4 µg/mL
same,MIC NRS 384 (MRSA),[6]; [8],8/8
same,MIC,[7]; [8],4 µg/mL
"O=c1[nH]c(NCc2ccc(Cl)c(Cl)c2)nc2cnn(CC3CCCO3)c12 (stereo not drawn) [Compound 102, 5-((3,4-Dichlorobenzyl)amino)-1-((tetrahydrofuran-2-yl)methyl)-1H-pyrazolo[4,3-d]pyrimidin-7(6H)-one]",MIC E. faecium ATCC 700221 (VRE),[1]; [8],2/4
same,MIC,[2]; [9],4 µg/mL
same,MIC,[3]; [10],1 µg/mL
same,MIC,[4]; [11],> 64 µg/mL
same,MIC E. coli ATCC 25922 + 4 mM EDTA,[4]; [8],>64 µg/mL
same,MIC,[5]; [12],4 µg/mL
same,MIC NRS 384 (MRSA),[6]; [8],4/4
same,MIC,[7]; [8],4 µg/mL
"Cl.O=c1[nH]c(NCc2ccc(Cl)c(Cl)c2)nc2cn(Cn3cncn3)nc12 [Compound 103, 2-((1H-1,2,4-triazol-1-yl)methyl)-5-((3,4-dichlorobenzyl)amino)-2H-pyrazolo[4,3-d]pyrimidin-7(6H)-one hydrochloride]",MIC,[1]; [8],64 µg/mL
same,MIC,[2]; [9],> 64 µg/mL
same,MIC,[3]; [10],32 µg/mL
same,MIC,[4]; [11],> 64 µg/mL
same,MIC E. coli ATCC 25922 + 4 mM EDTA,[4]; [8],64 µg/mL
same,MIC,[5]; [12],16 µg/mL
same,MIC,[6]; [8],64 µg/mL
same,MIC,[7]; [8],64 µg/mL
"O=c1[nH]c(NCc2ccc(Cl)c(Cl)c2)nc2cnn(CCSCCO)c12 [Compound 104, 5-((3,4-Dichlorobenzyl)amino)-1-(2-((2-hydroxyethyl)thio)ethyl)-1H-pyrazolo[4,3-d]pyrimidin-7(6H)-one]",MIC E. faecium ATCC 700221 (VRE),[1]; [8],2/2
same,MIC,[2]; [9],4 µg/mL
same,MIC,[3]; [10],1 µg/mL
same,MIC,[4]; [11],> 64 µg/mL
same,MIC E. coli ATCC 25922 + 4 mM EDTA,[4]; [8],>64 µg/mL
same,MIC,[5]; [12],4 µg/mL
same,MIC NRS 384 (MRSA),[6]; [8],4/4
same,MIC,[7]; [8],4 µg/mL
"O=c1[nH]c(NCc2ccc(Cl)c(Cl)c2)nc2cnn(CC3COCCO3)c12 (stereo not drawn) [Compound 105, 1-((1,4-Dioxan-2-yl)methyl)-5-((3,4-dichlorobenzyl)amino)-1H-pyrazolo[4,3-d]pyrimidin-7(6H)-one]",MIC E. faecium ATCC 700221 (VRE),[1]; [8],4/2
same,MIC,[2]; [9],8 µg/mL
same,MIC,[3]; [10],1 µg/mL
same,MIC,[4]; [11],> 64 µg/mL
same,MIC E. coli ATCC 25922 + 4 mM EDTA,[4]; [8],>64 µg/mL
same,MIC,[5]; [12],4 µg/mL
same,MIC NRS 384 (MRSA),[6]; [8],4/2
same,MIC,[7]; [8],4 µg/mL
"COCC(COC)n1ncc2nc(NCc3ccc(Cl)c(Cl)c3)[nH]c(=O)c21 [Compound 106, 5-((3,4-Dichlorobenzyl)amino)-1-(1,3-dimethoxypropan-2-yl)-1H-pyrazolo[4,3-d]pyrimidin-7(6H)-one]",MIC,[1]; [8],32 µg/mL
same,MIC,[2]; [9],> 64 µg/mL
same,MIC,[3]; [10],32 µg/mL
same,MIC,[4]; [11],> 64 µg/mL
same,MIC E. coli ATCC 25922 + 4 mM EDTA,[4]; [8],>64 µg/mL
same,MIC,[5]; [12],32 µg/mL
same,MIC,[6]; [8],32 µg/mL
same,MIC,[7]; [8],64 µg/mL
"O=c1[nH]c(NCc2ccc(Cl)c(Cl)c2)nc2cnn(C(CO)CO)c12 [Compound 107, 5-((3,4-Dichlorobenzyl)amino)-1-(1,3-dihydroxypropan-2-yl)-1H-pyrazolo[4,3-d]pyrimidin-7(6H)-one]",MIC,[1]; [8],> 64 µg/mL
same,MIC,[2]; [9],> 64 µg/mL
same,MIC,[3]; [10],32 µg/mL
same,MIC,[4]; [11],> 64 µg/mL
same,MIC E. coli ATCC 25922 + 4 mM EDTA,[4]; [8],>64 µg/mL
same,MIC,[5]; [12],16 µg/mL
same,MIC,[6]; [8],> 64 µg/mL
same,MIC,[7]; [8],> 64 µg/mL
"O=c1[nH]c(NCc2ccc(Cl)c(Cl)c2)nc2cnn(CCOC3CCOCC3)c12 [Compound 108, 5-((3,4-Dichlorobenzyl)amino)-1-(2-((tetrahydro-2H-pyran-4-yl)oxy)ethyl)-1H-pyrazolo[4,3-d]pyrimidin-7(6H)-one]",MIC E. faecium ATCC 700221 (VRE),[1]; [8],4/2
same,MIC,[2]; [9],8 µg/mL
same,MIC,[3]; [10],2 µg/mL
same,MIC,[4]; [11],> 64 µg/mL
same,MIC E. coli ATCC 25922 + 4 mM EDTA,[4]; [8],>64 µg/mL
same,MIC,[5]; [12],4 µg/mL
same,MIC NRS 384 (MRSA),[6]; [8],8/4
same,MIC,[7]; [8],4 µg/mL
"Cl.O=c1[nH]c(NCc2ccc(Cl)c(Cl)c2)nc2cnn(Cc3ccccn3)c12 [Compound 109, 5-((3,4-Dichlorobenzyl)amino)-1-(pyridin-2-ylmethyl)-1H-pyrazolo[4,3-d]pyrimidin-7(6H)-one hydrochloride]",MIC,[1]; [8],4 µg/mL
same,MIC,[2]; [9],> 64 µg/mL
same,MIC,[3]; [10],2 µg/mL
same,MIC,[4]; [11],> 64 µg/mL
same,MIC E. coli ATCC 25922 + 4 mM EDTA,[4]; [8],>64 µg/mL
same,MIC,[5]; [12],4 µg/mL
same,MIC,[6]; [8],64 µg/mL
same,MIC,[7]; [8],> 64 µg/mL
"Cl.O=c1[nH]c(NCc2ccc(Cl)c(Cl)c2)nc2cnn(CCc3cccnc3)c12 [Compound 110, 5-((3,4-Dichlorobenzyl)amino)-1-(2-(pyridin-3-yl)ethyl)-1H-pyrazolo[4,3-d]pyrimidin-7(6H)-one hydrochloride]",MIC E. faecium ATCC 700221 (VRE),[1]; [8],2/2
same,MIC,[2]; [9],4 µg/mL
same,MIC,[3]; [10],1 µg/mL
same,MIC,[4]; [11],> 64 µg/mL
same,MIC E. coli ATCC 25922 + 4 mM EDTA,[4]; [8],>64 µg/mL
same,MIC,[5]; [12],4 µg/mL
same,MIC NRS 384 (MRSA),[6]; [8],2/2
same,MIC,[7]; [8],4 µg/mL
